# Results: patent publication US20230255873A1, “COSMETIC OR DERMATOLOGICAL PEPTIDE-BASED TREATMENT OF THE SKIN AND ITS INTEGUMENTS” (Sederma, priority 2020, published 2023)
# The star is where a group is joined. Palmitoyl = CCCCCCCCCCCCCCCC(=O)*
# Experiments:
# [1] = system: HaCaTs; test: Scratch test on HaCaTs (keratinocyte migration, with or without P. acnes); assay type: cell-based, human; conditions: 24 hours after injury
# Description: 1.5—Scratch Test on HaCaTs
# Principle: HaCats are inoculated in a 6-well plate in a suitable medium until confluence. 24-hour contact with the peptide according to the invention (test cases) or its excipient (control case) in the culture medium is then carried out. After this first step, wounds are made on the cell layers in the experimental wells (with a dedicated tool to make reproducible and small wounds); two wells per case are dedicated to cell counting; rinsing with PBS and an addition of culture medium with or without the peptide according to the invention depending on the case, in the presence or absence of Propionibacterium acnes (100 bacteria for 1 HaCaT cell) are carried out. Photos are taken (to calculate the area of the wound at T0 over a specific area). The cultures are stopped after 24 hours of incubation and photos are taken on the same areas as at T0. A photo processing software (Image J) can calculate for each case the area at T0 and the area recolonized by cells, 24 hours after injury, and establish a ratio.
# [2] = system: P. acnes; test: Biofilm stability of P. acnes (peptide added 24 hours after start of culture); assay type: cell-based, Propionibacterium acnes; conditions: peptide added 24 hours after the start of the culture
# Description: The effect of the peptide on the biofilm stability was also evaluated, the peptide being only added 24 hours after the start of the P. acnes culture.
# [3] = system: Propionibacterium acnes; test: Propionibacterium acnes growth inhibition test (time to OD of 1); assay type: cell-based; conditions: control 26 hours
# Description: 1.4—Propionibacterium acnes Growth Inhibition Test Principle: Suspensions of Propionibacterium acnes of equivalent density are cultured in a suitable medium in the presence (test case) or absence (control case) of the preferred peptide according to the invention, in anaerobic condition, at 37° C. Samples are taken at regular intervals to measure the OD at 600 nm, to follow the growth of the bacterial population over time. The growth curve of each culture can therefore be established.
# [4] = system: equivalent skins; test: Thickness of the stratum corneum on equivalent skins; assay type: cell-based, human; conditions: 2 days of contact, vs control
# Description: Equivalent skins were prepared by first manufacturing an equivalent dermis, then once it contracted, human keratinocytes were seeded on the surface of the gel. After 14 days, equivalent skins were obtained, on which carbopol gels containing the peptide of the invention or the solvent alone were applied to their surface. After 2 days of contact, the skins were frozen to be sectioned into thin 7 μm slides and then marked in order to visualize the macrostructure of the layers. A quantification of the thickness of the stratum corneum was carried out on photos using an image software.
# [5] = system: NHKs exposed to UVB; test: ELISA of pro-inflammatory mediators (PGE2 and IL-6) on NHK exposed to UVB; assay type: cell-based, human
# Description: 1.1—Immuno-Enzymatic Assays (ELISA) on Normal Human Keratinocyte (NHK) Culture Principle: NHKs in culture and at confluence are brought into contact with the peptide of the invention at different concentrations for 24 hours in a medium allowing their survival. Then the cell layers are irradiated with UVB (light stress, intended to mimic an experimental cutaneous micro-inflammation) in a physiological buffer and again brought into contact with the products to be tested for 24 hours. At the end of this incubation, the culture media are assayed by ELISA to evaluate the amounts of pro-inflammatory mediators (PGE2 and IL-6) produced by these cells in response to irradiation. The results are compared to the control. A decrease in the amount of mediators produced will be interpreted as a limitation of damages related to inflammation. An estimate of the cell number is made on the attached layer to reduce the assay results to the number of cells. A study of variances and a Student t test are carried out to judge the significance of the results.
# [6] = system: Normal Human Fibroblasts (NHF); test: Immuno-enzymatic tests on normal human fibroblasts (NHF) culture; assay type: cell-based; conditions: 3 days
# Description: 1.3—Immuno-Enzymatic Tests on Normal Human Fibroblasts (NHF) Culture Principle: Normal Human Fibroblasts (NHF) are cultured in 24-well plates for 24 hours in the proliferation medium until confluence. The cells are then brought into contact or not (control case) with the preferred peptide according to the invention for 3 days in a medium without serum. The culture media are collected and the concentrations of various elements of the dermis or the basement membrane (PIP (carboxy-terminal propeptide of procollagen type I), collagen I, collagen IV, fibronectin) are measured by ELISA assays. An estimate of cell viability is also carried out at the end of culture, in order to weight the data from the ELISA, using an assay with the Hoechst 33258 reagent (DNA intercalator). A study of variances and a Student t test for paired series were carried out to judge the significance of the results.
substance,measurement,setting,value
palmitoyl-lysyl-threonyl-serine-lysyl-serine (Palmitoyl-KTSKS-OH; SMILES CCCCCCCCCCCCCCCC(=O)N[C@@H](CCCCN)C(=O)N[C@H](C(=O)N[C@@H](CO)C(=O)N[C@@H](CCCCN)C(=O)N[C@@H](CO)C(=O)O)[C@@H](C)O) [Pal-KTSKS],"Keratinocyte migration, variation compared to the control","[1]; With P. acnes (Reference 2), 5 ppm of peptide",−49.67%
same,"Keratinocyte migration, variation compared to the control","[1]; With P. acnes (Reference 2), 7 ppm of peptide",−66.15%
same,"Keratinocyte migration, variation compared to the control","[1]; Without P. acnes, 5 ppm of peptide",−3% (nsd)
same,"Keratinocyte migration, variation compared to the control","[1]; Without P. acnes, 7 ppm of peptide",−0.36% (nsd)
same,Reduction of the biofilm formed at 72 hours vs control (biofilm stability),[2]; 6 ppm,89%
same,Reduction of the biofilm formed at 72 hours vs control (biofilm stability),[2]; 12 ppm,93%
same,Growth of P. acnes: time required to reach an OD of 1,[3]; 6 ppm of peptide,54 h
same,Growth of P. acnes: time required to reach an OD of 1,[3]; 9 ppm of peptide,103 h
same,Growth of P. acnes: time required to reach an OD of 1,[3]; 12 ppm of peptide,135 h
same,"Thickness of the stratum corneum, Variation (%)",[4]; 8 ppm of peptide in carbopol gel,+150%; p < 0.01
same,"Thickness of the stratum corneum, Variation (%)",[4]; 10 ppm of peptide in carbopol gel,+143%; p < 0.05
same,"IL6 secretion, variation compared to the control",[5]; 3 ppm,−4% (nsd)
same,"PGE2 secretion, variation compared to the control",[5]; 3 ppm,+1% (nsd)
same,"IL6 secretion, variation compared to the control",[5]; 10 ppm,−33% (p < 0.01)
same,"PGE2 secretion, variation compared to the control",[5]; 10 ppm,−41% (p < 0.01)
same,"IL6 secretion, variation compared to the control",[5]; 15 ppm,−65% (p < 0.01)
same,"PGE2 secretion, variation compared to the control",[5]; 15 ppm,−63% (p < 0.01)
same,Collagen I Variation %/control,[6]; 8 ppm,+75%; p < 0.01
same,Collagen IV Variation %/control,[6]; 8 ppm,+18%; p < 0.01
same,Fibronectin Variation %/control,[6]; 8 ppm,+40%; p < 0.01
same,Terminal C peptide of pro-collagen I variation %/control,[6]; 8 ppm,+61%; p < 0.01
same,Collagen I Variation %/control,[6]; 10 ppm,+184%; p < 0.01
same,Collagen IV Variation %/control,[6]; 10 ppm,+98%; p < 0.01
same,Fibronectin Variation %/control,[6]; 10 ppm,+67%; p < 0.01
same,Terminal C peptide of pro-collagen I variation %/control,[6]; 10 ppm,+94%; p < 0.01
